Test results: US7214495B2, “Screening method” (Takeda Pharmaceutical Company Limited, priority 2002, dated 2007)

test system: mouse pancreatic β cell line MIN6; experiment: Insulin secretion from MIN6 in KRBH buffer (immunoassay); assay type: cell-based; conditions: 22 mM glucose KRBH, 90 minutes
Experimental: The mouse pancreatic β cell line MIN6 incubated in a flask was scraped in PBS containing 2.5 mM EDTA and plated in a 96-well plate followed by incubation for 2 days. The medium used was the same as in EXAMPLE 24, namely, 4.5 g/l of glucose-containing Dulbecco's Modified Eagle Medium (DMEM, Invitrogen, Inc.) supplemented with 15% fetal calf serum (ThermoTrace, Inc.), 5.5 μM 2-mercaptethanol (Invitrogen, Inc.), 20 mM HEPES pH 7.3, 100 U/ml penicillin and 100 μg/ml streptomycin. The cells were washed twice with modified Krebs-Ringer bicarbonate buffer (KRBH, 116 mM NaCl, 4.7 mM KCl, 1.2 mM KH2PO4, 1.2 mM MgSO4, 2.5 mM CaCl2, 25 mM NaHCO3, 24 mM HEPES, pH 7.3), followed by preincubation at 37° C. in 5% CO2 for 30 minutes. The fatty acid diluted/prepared using the aforesaid KRBH buffer added with 22 mM glucose was added to the cells after the preincubation, followed by incubation under the conditions of 37° C. in 5% CO2 for 90 minutes. After the incubation, the supernatant of the cells was recovered and stored in a frozen state. The insulin content in the supernatant was assayed using an insulin immunoassay kit commercially available (Amersham Pharmacia, Inc.).
Based on the method of EXAMPLE 25, effects of glucose level when added with fatty acids were examined. The level of glucose, which was added to KRBH upon the addition of fatty acids, was varied to 0, 5.5, 11 and 22 mM to study the effects.
The insulin secretion enhancing activity in the m40i103-introduced MIN6 cells using HVJ Envelope VECTOR KIT GenomONE based on the method of EXAMPLE 18 was examined. The insulin secretion enhancing activity by fatty acids was examined according to the method of EXAMPLE 25.
Based on the procedures of EXAMPLE 25, an essential prerequisite of Ca^2+ ions in the extracellular fluid was examined. In preincubation and incubation with a sample, Ca^2+ ions were removed and 0.1 mM EGTA, which was a reagent for chelating Ca^2+ ions, was further added, and then the insulin secretion enhancing activity by fatty acids was examined in this case.
Based on the method of EXAMPLE 25, effects of Ca^2+ channel blocker (Nifedipine) and MAP kinase inhibitor (PD98059) were examined. In preincubation and incubation with a sample, the insulin secretion enhancing activity by fatty acids was examined when Nifedipine (10 μM) or PD98059 (50 μM) was added.
It is known that fatty acids have the property of binding to albumin. Based on the method of EXAMPLE 25, effects were examined when bovine serum albumin (BSA) was present. In preincubation and incubation with a sample, the insulin secretion activity by fatty acids was examined when 0.1% BSA was added to the buffer.

SMILES | insulin secretion enhancing activity
CC/C=C\C/C=C\C/C=C\CCCCCCCC(=O)O [α-Linolenic acid (C18:3), α-Linolenic acid] | significantly noted

molecular target: T1, human GPR40 (Homo sapiens, UniProt O14842); experiment: EC50 by FLIPR calcium assay in CHO cells stably expressing human GPR40; assay type: cell-based; conditions: not given
T1 construct: The resulting fragment (ca. 1 kb) was introduced into vector pAKKO-111, which was used for transfection of CHO cells; expressed in transfected cells
Experimental: (§1) For determination of EC50 values, the CHO cell lines in which human-, mouse- and rat-derived GPR40 was stably expressed were used. Unless otherwise indicated, these CHO cell lines were incubated in α-MEM medium (Invitrogen) supplemented with 10% fetal calf serum (Invitrogen).
(§2) On the day before assay, the cells incubated to almost confluent stage were rinsed with PBS (Invitrogen), then scraped in 0.05% trypsin-EDTA solution (Invitrogen) and recovered by centrifugal operation. The number of the cells obtained was counted and diluted so as to contain 3×10^5 cells/1 mL of the medium. The dilution was dispensed in a Black welled 96-well plate (Coster) in 100 μL/well, followed by incubation overnight in a CO2 incubator. To the thus prepared CHO cells, various test samples were added and the changes in intracellular calcium level in this case were measured using FLIPR (Molecular Device). In order to determine the changes in the intracellular calcium ion level on FLIPR, the cells were pre-treated by the following procedures.
(§3) First, for the purpose of adding a fluorescent dye Fluo-3 AM (DOJIN) to the cells or washing the cells immediately before the FLIPR assay, an assay buffer was prepared. A solution obtained by adding 20 mL of 1M HEPES (pH 7.4) (DOJIN) to 1000 mL of HBSS (Invitrogen) was prepared (hereinafter HBSS/HEPES solution), to which 10 mL of a solution mixture obtained by dissolving 710 mg of Probenecid (Sigma) in 5 mL of 1N NaOH and further adding 5 mL of HBSS/HEPES solution was added. The resulting solution was used as the assay buffer. Next, 50 μg of Fluo-3AM was dissolved in 21 μL of DMSO (Wako) and an equal volume of 20% Pulronic acid (Molecular Probes) was added to and mixed with the solution. The mixture was then added to 10.6 mL of the assay buffer supplemented with 105 μL of fetal calf serum to prepare a fluorescent dye solution. […], the medium for the CHO cells again plated in a Black welled 96-well plate was removed. Immediately thereafter, the fluorescent dye solution was dispensed in 100 μL each/well and the cells were incubated in a CO2 incubator for an hour so that the fluorescent dye was taken up into the cells. The cells after the incubation was washed with the assay buffer described above and set on FLIPR. […] After the pre-treatment above was made, the changes in intracellular calcium level after the addition of various test samples were measured on FLIPR.

T1 sequence (O14842 whole entry, the tested form may be a part): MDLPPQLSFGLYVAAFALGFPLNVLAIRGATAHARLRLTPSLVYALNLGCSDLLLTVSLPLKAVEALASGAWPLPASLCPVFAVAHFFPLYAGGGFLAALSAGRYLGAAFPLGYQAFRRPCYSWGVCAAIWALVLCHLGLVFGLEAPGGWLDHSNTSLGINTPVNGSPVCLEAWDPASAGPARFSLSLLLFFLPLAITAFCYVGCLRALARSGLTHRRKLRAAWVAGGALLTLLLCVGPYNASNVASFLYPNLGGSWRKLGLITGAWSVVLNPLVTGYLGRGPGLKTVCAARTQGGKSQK

SMILES | EC50
CC/C=C\C/C=C\C/C=C\CCCCCCCC(=O)O [α-Linolenic acid (C18:3), α-Linolenic acid] | 2 ± 0.3 µM

same assay, conditions: intracellular calcium, FLIPR, stable CHO line

SMILES | EC50 Human GPR40
CC(=O)O [Acetic acid (C2), Acetic acid] | inactive
CCCCCC(=O)O [Caproic acid (C6), Caproic acid] | inactive

same assay, conditions: intracellular calcium, FLIPR, stable CHO line; read-out: EC50 Human GPR40

EC50 | SMILES
43 ± 2.2 µM | CCCCCCCCCC(=O)O [Capric acid (C10), Capric acid]
2.3 ± 0.4 µM | CC/C=C\C/C=C\C/C=C\C/C=C\C/C=C\CCCC(=O)O [Eicosapentaenoic acid (C20:5), Eicosapentaenoic acid]
4.7 ± 0.4 µM | CCCCCCCC/C=C/CCCCCCCC(=O)O [Elaidic acid (C18:1), Elaidic acid]
> 300 µM | CCCCCCCCCCCCCCCCCC(=O)O [Stearic acid (C18), Stearic acid]

SMILES | EC50
CCCCCCCC(=O)O [Caprylic acid (C8), Caprylic acid] | > 300 µM

molecular target: T2, Mouse GPR40 (Mus musculus, UniProt Q76JU9); experiment: EC50 by FLIPR calcium assay in CHO cells stably expressing mouse GPR40; assay type: cell-based; conditions: not given
T2 construct: expressed in transfected cells
Experimental: as §1, §2, §3

T2 sequence (Q76JU9 whole entry): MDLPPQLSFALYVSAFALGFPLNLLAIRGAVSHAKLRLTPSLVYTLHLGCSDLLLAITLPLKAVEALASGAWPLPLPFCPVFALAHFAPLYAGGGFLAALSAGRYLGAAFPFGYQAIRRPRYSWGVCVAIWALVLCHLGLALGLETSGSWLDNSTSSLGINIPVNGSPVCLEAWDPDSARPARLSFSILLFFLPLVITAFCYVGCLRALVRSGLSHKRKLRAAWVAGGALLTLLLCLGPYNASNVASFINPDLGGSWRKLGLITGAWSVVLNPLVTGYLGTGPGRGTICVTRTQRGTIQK

SMILES | EC50
CC/C=C\C/C=C\C/C=C\CCCCCCCC(=O)O [α-Linolenic acid (C18:3), α-Linolenic acid] | 3.6 ± 0.3 µM

same assay, conditions: intracellular calcium, FLIPR, stable CHO line

SMILES | EC50 Mouse GPR40
CC(=O)O [Acetic acid (C2), Acetic acid] | inactive
CCCCCC(=O)O [Caproic acid (C6), Caproic acid] | inactive
CCCCCCCC(=O)O [Caprylic acid (C8), Caprylic acid] | inactive

same assay, conditions: intracellular calcium, FLIPR, stable CHO line; read-out: EC50 Mouse GPR40

SMILES | EC50
CCCCCCCCCC(=O)O [Capric acid (C10), Capric acid] | > 100 µM
CCCCCCCC/C=C/CCCCCCCC(=O)O [Elaidic acid (C18:1), Elaidic acid] | 6.5 ± 1.5 µM
CCCCCCCCCCCCCCCCCC(=O)O [Stearic acid (C18), Stearic acid] | > 300 µM

Continued, values first:

EC50 | SMILES
4.9 ± 0.8 µM | CC/C=C\C/C=C\C/C=C\C/C=C\C/C=C\CCCC(=O)O [Eicosapentaenoic acid (C20:5), Eicosapentaenoic acid]
6 ± 0.8 µM | CCCCCCCCCCCCCC(=O)O [Myristic acid (C14), Myristic acid]

molecular target: T3, Rat GPR40 (Rattus norvegicus, UniProt Q8K3T4); experiment: EC50 by FLIPR calcium assay in CHO cells stably expressing rat GPR40; assay type: cell-based; conditions: not given
T3 construct: expressed in transfected cells
Experimental: as §1, §2, §3

T3 sequence (Q8K3T4 whole entry): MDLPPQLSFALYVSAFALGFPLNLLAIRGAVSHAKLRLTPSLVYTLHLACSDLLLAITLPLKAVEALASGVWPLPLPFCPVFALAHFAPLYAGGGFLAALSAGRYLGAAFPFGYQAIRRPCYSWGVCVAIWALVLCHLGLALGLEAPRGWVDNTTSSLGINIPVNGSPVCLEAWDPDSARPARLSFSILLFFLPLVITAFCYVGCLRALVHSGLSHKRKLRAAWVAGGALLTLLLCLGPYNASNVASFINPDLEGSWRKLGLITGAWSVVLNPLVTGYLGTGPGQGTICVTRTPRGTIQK

SMILES | EC50
CC/C=C\C/C=C\C/C=C\CCCCCCCC(=O)O [α-Linolenic acid (C18:3), α-Linolenic acid] | 4 ± 0.7 µM

same assay, conditions: intracellular calcium, FLIPR, stable CHO line

EC50 Rat GPR40 | SMILES
inactive | CC(=O)O [Acetic acid (C2), Acetic acid]

same assay, conditions: intracellular calcium, FLIPR, stable CHO line; read-out: EC50 Rat GPR40

EC50 | SMILES
> 100 µM | CCCCCCCCCC(=O)O [Capric acid (C10), Capric acid]
9.8 ± 0.6 µM | CC/C=C\C/C=C\C/C=C\C/C=C\C/C=C\CCCC(=O)O [Eicosapentaenoic acid (C20:5), Eicosapentaenoic acid]
11 ± 1.5 µM | CCCCCCCC/C=C/CCCCCCCC(=O)O [Elaidic acid (C18:1), Elaidic acid]
> 300 µM | CCCCCCCCCCCCCCCCCC(=O)O [Stearic acid (C18), Stearic acid]

SMILES | EC50
CCCCCC(=O)O [Caproic acid (C6), Caproic acid] | > 300 µM
CCCCCCCC(=O)O [Caprylic acid (C8), Caprylic acid] | > 300 µM
